ChEMBL document CHEMBL2146418, “Synthesis and comparison of antiplasmodial activity of (+), (-) and racemic 7-chloro-4-(N-lupinyl)aminoquinoline” (Bioorg Med Chem, 2012)

Experiments:
[1] = Therapeutic index, ratio of IC50 for human HMEC1 cells to IC50 for Plasmodium falciparum; assay type: cell-based; settings: HMEC1 cells versus Plasmodium falciparum, read-out: Ratio IC50
[2] = Cytotoxicity against human HDF cells after 72 hrs by MTT assay; assay type: cell-based
[3] = Cytotoxicity against human HMEC1 cells after 72 hrs by MTT assay; assay type: cell-based; settings: HMEC-1, 72 h
[4] = test system: Plasmodium falciparum; assay: Antiplasmodial activity against chloroquine-resistant Plasmodium falciparum isolate Kenya after 72 hrs by lactate dehydrogenase assay; assay type: functional, organism-based
[5] = test system: Plasmodium falciparum; assay: Antiplasmodial activity against chloroquine-resistant Plasmodium falciparum W2 infected in human RBC assessed as inhibition of parasite growth after 72 hrs by lactate dehydrogenase assay; assay type: functional, organism-based; settings: W2, 72 h
[6] = test system: Plasmodium falciparum; assay: Antiplasmodial activity against chloroquine-sensitive Plasmodium falciparum 3D7 infected in human RBC assessed as inhibition of parasite growth after 72 hrs by lactate dehydrogenase assay; assay type: functional, organism-based; settings: 3D7, 72 h
[7] = test system: Plasmodium falciparum; assay: Antiplasmodial activity against chloroquine-sensitive Plasmodium falciparum D10 infected in human RBC assessed as inhibition of parasite growth after 72 hrs by lactate dehydrogenase assay; assay type: functional, organism-based; settings: D10, 72 h

Compound | selectivity ratio [1] | IC50 [2] [µM] | IC50 [3] [µM] | IC50 [4] [µM] | IC50 [5] [µM] | IC50 [6] [µM] | IC50 [7] [µM]
Clc1ccc2c(NC[C@@H]3CCCN4CCCC[C@H]34)ccnc2c1 | > 1000 | 22.6 | > 49 | 0.0292 | 0.0537 | 0.0281 | 0.024
Clc1ccc2c(NCC3CCCN4CCCCC34)ccnc2c1 (racemic) | > 1000 | 24.6 | > 60 | 0.0194 | 0.0354 | 0.0186 | 0.0161
Clc1ccc2c(NC[C@H]3CCCN4CCCC[C@@H]34)ccnc2c1 | > 1000 | 26.9 | > 60 | 0.0189 | 0.0358 | 0.0219 | 0.0175
CCN(CC)CCCC(C)Nc1ccnc2cc(Cl)ccc12 (stereo not drawn) [CHLOROQUINE] |  | > 38 | > 38 |  |  |  | 
